These results are taken from publication PMC9532951, “Identification and characterization of a novel SNAT2 (SLC38A2) inhibitor reveals synergy with glucose transport inhibition in cancer cells” (Frontiers in Pharmacology, 2022).

Structures are written as SMILES. Where “and” joins values, the source holds several entries; their conditions need not be identical. Equal values may be shown once.

For assay [1], the system named is SNAT1/2. As to the kind of experiment: [14C]glutamine uptake in HCC1806 cells. In kind it is cell-based, human. How it is done:
(§1) Functional characterisation of plasma membrane transporters in human cancer cells was determined at 37°C using an array of radiolabelled amino acid substrates. Modified Hanks HEPES-buffered salts solution (mHBSS; 137 mM NaCl; 5.4 mM KCl; 2.7 mM K2HPO4; 1 mM CaCl2; 0.5 mM MgCl2; 0.44 mM KH2PO4; 0.4 mM MgSO4; 5 mM D-glucose; 5 mM HEPES; pH 7.4) was used to wash and incubate cells where sodium dependent transport was measured, while N-methyl-D-glucamine (NMDG) and potassium salts substituted sodium in NMDG mHBSS to measure sodium independent uptake. For the assay, cells were seeded in 35 mm dishes and, once confluent, were washed thrice with warm mHBSS solution and incubated with mHBSS containing an 100 µM amino acid at a final specific activity of ≥2000 cpm/nmol (U-[^14C]amino acids were from PerkinElmer). After 6 min, cells were washed thrice with ice-cold mHBSS, lysed with 500 µl of 0.1 M HCl, detached with a cell scraper and triturated. A 400 µl aliquot was used for scintillation counting, while the remainder was saved for protein mass quantification by Bradford assay. Transport rates were normalised to the protein content of the culture dish.

Assay [2] has as its target T1, SNAT1 (Homo sapiens, UniProt Q9H2H9).
T1 construct: SNAT1 remained active as indicated by the Na^+-dependence of alanine uptake; endogenous in cells; host or cells: HCC1806 clone D126 (ASCT2ko, SNAT2ko), amino acid depleted for 24 h
T1 sequence (Q9H2H9 1-487): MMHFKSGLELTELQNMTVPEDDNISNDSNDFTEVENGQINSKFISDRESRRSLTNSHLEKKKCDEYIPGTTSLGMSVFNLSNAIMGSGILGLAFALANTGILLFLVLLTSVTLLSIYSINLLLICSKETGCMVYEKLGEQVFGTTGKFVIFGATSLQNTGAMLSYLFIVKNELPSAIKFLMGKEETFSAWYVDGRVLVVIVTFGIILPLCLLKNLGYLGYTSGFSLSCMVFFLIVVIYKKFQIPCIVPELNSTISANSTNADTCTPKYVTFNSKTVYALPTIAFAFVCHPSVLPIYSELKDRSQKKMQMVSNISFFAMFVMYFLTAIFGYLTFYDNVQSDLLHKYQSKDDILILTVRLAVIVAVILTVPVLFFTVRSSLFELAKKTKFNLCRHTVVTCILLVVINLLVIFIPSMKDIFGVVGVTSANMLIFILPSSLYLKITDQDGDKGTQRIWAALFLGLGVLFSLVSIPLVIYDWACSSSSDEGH
Nature of the assay: Alanine uptake in HCC1806 D126 (ASCT2ko, SNAT2ko) cells. The class given is cell-based. To be noted: for Alanine uptake (nmol / mg protein x 6 min): Figure 4B, replicates 1-3; for inhibition of alanine uptake: HCC1806 D126, Figure 4B, betaine and MeAIB 10 mM. The procedure:
To delete the SNAT2 (SLC38A2) gene in modified HCC1806 cells (clone C10 nullizygous for ASCT2 ([Broer et al., 2019])), the GeneArt CRISPR Nuclease Vector with OFP Reporter Kit (Invitrogen; A21174) was employed and complementary 19–20 bp long single-stranded oligonucleotides with overhangs were designed to produce a guide RNA (gRNA) for the Cas9 nuclease that would target exon 7 of the SNAT2 gene. Colonies were analysed by sequencing using the U6 primer included in the GeneArt CRISPR Nuclease Vector with OFP Reporter kit. Plasmids that contained the correct CRISPR nuclease construct were then used to transfect HCC1806 cells with Lipofectamine 2000 (Invitrogen). Prior to transfection, medium was replaced with 2 ml of fresh DMEM/F-12 (supplemented with 10% heat-inactivated FBS and 2 mM glutamine). Plasmid DNA (4 µg) and 10 µL of Lipofectamine 2000 were incubated separately for 5 min at room temperature in 500 µl of Opti-MEM (Invitrogen) before being combined and incubated for a further 30 min at room temperature. The DNA-Lipofectamine complex was then added to the cells in a dropwise manner and allowed to be absorbed over 6 h at 37°C, after which the medium was renewed with fresh DMEM/F-12. Cells were checked for red fluorescence using an EVOS FL cell imaging system (Thermo Fisher Scientific) 48–72 h post transfection. Subsequently, cells were detached using 0.25% Trypsin EDTA. After harvesting and washing thrice with PBS (pH 7.4), cells were resuspended in PBS (pH 7.4) supplemented with 5 mM glucose and 1% dialysed and heat inactivated FBS and passed through a 100 μm cell strainer. The cell filtrate was then pelleted once more and resuspended in the same buffer. Cells were sorted using an ARIA II FACS machine and individually dispensed into the wells of a 96-well plate. Nullizygous clones were identified using a series of assays including the FLIPR membrane potential assay, western blotting and sequencing.
as §1

Take `Cc1ccc(S(=O)(=O)N(C)c2ccsc2C(=O)NCc2ccccc2C(F)(F)F)cc1` [Compound 57_E, 3-(N-methyl (4-methylphenyl)sulfonamido)-N-(2-trifluoromethylbenzyl)thiophene-2-carboxamide]: in assay [1] (50 µM inhibitor, HCC1806 after 24 h amino acid depletion), the “inhibition of 100 µM glutamine uptake” value was “inhibited a significant fraction of the MeAIB-sensitive component of glutamine uptake”. For the same compound, the “Glutamine uptake (nmol / mg protein x 6 min)” value in assay [1] (Figure 3D, replicates 1-3) was 46.6677 nmol / mg protein x 6 min and 48.4796 nmol / mg protein x 6 min and 48.0528 nmol / mg protein x 6 min. Moreover, in assay [2], the “discrimination between SNAT2 and SNAT1” value is recorded as “discriminated against the close transporter homologue SNAT1”; the “inhibition of alanine uptake” value is “did not inhibit alanine uptake”. In assay [2] (screening compounds), the “Alanine uptake (nmol / mg protein x 6 min)” value is 28.3148 nmol / mg protein x 6 min and 26.5203 nmol / mg protein x 6 min and 27.3289 nmol / mg protein x 6 min.

As to `C[N+](C)(C)CC(=O)O` [Betaine, betaine], the Glutamine uptake is 37.8707 nmol / mg protein x 6 min and 45.7014 nmol / mg protein x 6 min and 38.6268 nmol / mg protein x 6 min in assay [1] (AA+ (growth medium), 100 µM glutamine, replicates 1-3); 13.5306 nmol / mg protein x 6 min and 16.7838 nmol / mg protein x 6 min and 15.0446 nmol / mg protein x 6 min in assay [1] (AA- (starvation medium 24 h), 100 µM glutamine, replicates 1-3). For the same compound, in assay [1] (amino acid depleted HCC1806 cells (24 h), 100 µM glutamine), the “reduction of glutamine uptake” value stood at 46%. In assay [2] (10mM), the “Alanine uptake (nmol / mg protein x 6 min)” value was 27.8319 nmol / mg protein x 6 min and 27.8658 nmol / mg protein x 6 min and 25.4928 nmol / mg protein x 6 min. Besides, the “inhibition of alanine uptake” value in assay [2] is given as “not inhibited”.
